Source: patent US10526316B2, “Quinoxaline and pyridopyrazine derivatives as PI3Kβ inhibitors” (Janssen Pharmaceutica NV, priority 2015, dated 2020)
Read-outs that look alike come from different tables or passages of the source.

Tests used:
kinase enzymes [1] = target: T1, kinase enzymes (Homo sapiens, UniProt P48736); test: Enzyme binding assay (KINOMEscan, DiscoveRx), further kinases of Table A; details: PIK3Cγ_h
T1 construct: purchased DiscoveRx Corporation, San Diego (contract service, KINOMEscan)
Method in brief: (§1)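 Uses KINOMEscan technology to determine binding affinity toward the kinase enzymes.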

kinase enzymes [2] = target: T2, kinase enzymes (Homo sapiens, UniProt P42345); test: as above; details: MTOR_h
T2 construct: purchased DiscoveRx Corporation, San Diego (contract service, KINOMEscan)
Method in brief: as §1

kinase enzymes [3] = target: T3, kinase enzymes (Homo sapiens, UniProt P42336); test: as above; details: PIK3Cα_h
T3 construct: purchased DiscoveRx Corporation, San Diego (contract service, KINOMEscan)
Method in brief: as §1

PI3Kβ = target: T4, PI3Kβ (Homo sapiens, UniProt P42338); test: Enzyme binding assay (KINOMEscan, DiscoveRx); details: PIK3Cβ_h, read-out: Kd PIK3Cβ_h
T4 construct: purchased DiscoveRx Corporation, San Diego (contract service, KINOMEscan)
Method in brief: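 Using the KINOMEscan format, the enzyme binding affinity of each compound was determined. Each value is the inhibitor binding constant, Kd (nM).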

[4] = test system: Akt phosphorylated at Thr308 in PC-3 cells; test: Cellular assay: phosphorylation of Akt at Thr308 in PC-3 cells (MSD ELISA); assay type: cell-based; details: PC-3 cells, 60 min compound incubation, MSD ELISA, read-out: IC50 pAkt_Thr308
Method in brief: (§2)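 Compound treatment of PC-3 cells lasted 60 min at 37° C (0.3% DMSO). Lysates were then applied to plates carrying capture antibodies for the relevant phospho-site, and bound Akt was detected with an electrochemiluminescent anti-total Akt antibody; IC50s derive from five-point curves.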

PI3Kδ = target: T5, PI3Kδ (Homo sapiens, UniProt O00329); test: Enzyme binding assay (KINOMEscan, DiscoveRx); details: PIK3Cδ_h
T5 construct: purchased DiscoveRx Corporation, San Diego (contract service, KINOMEscan)
T5 sequence (O00329 1-1044): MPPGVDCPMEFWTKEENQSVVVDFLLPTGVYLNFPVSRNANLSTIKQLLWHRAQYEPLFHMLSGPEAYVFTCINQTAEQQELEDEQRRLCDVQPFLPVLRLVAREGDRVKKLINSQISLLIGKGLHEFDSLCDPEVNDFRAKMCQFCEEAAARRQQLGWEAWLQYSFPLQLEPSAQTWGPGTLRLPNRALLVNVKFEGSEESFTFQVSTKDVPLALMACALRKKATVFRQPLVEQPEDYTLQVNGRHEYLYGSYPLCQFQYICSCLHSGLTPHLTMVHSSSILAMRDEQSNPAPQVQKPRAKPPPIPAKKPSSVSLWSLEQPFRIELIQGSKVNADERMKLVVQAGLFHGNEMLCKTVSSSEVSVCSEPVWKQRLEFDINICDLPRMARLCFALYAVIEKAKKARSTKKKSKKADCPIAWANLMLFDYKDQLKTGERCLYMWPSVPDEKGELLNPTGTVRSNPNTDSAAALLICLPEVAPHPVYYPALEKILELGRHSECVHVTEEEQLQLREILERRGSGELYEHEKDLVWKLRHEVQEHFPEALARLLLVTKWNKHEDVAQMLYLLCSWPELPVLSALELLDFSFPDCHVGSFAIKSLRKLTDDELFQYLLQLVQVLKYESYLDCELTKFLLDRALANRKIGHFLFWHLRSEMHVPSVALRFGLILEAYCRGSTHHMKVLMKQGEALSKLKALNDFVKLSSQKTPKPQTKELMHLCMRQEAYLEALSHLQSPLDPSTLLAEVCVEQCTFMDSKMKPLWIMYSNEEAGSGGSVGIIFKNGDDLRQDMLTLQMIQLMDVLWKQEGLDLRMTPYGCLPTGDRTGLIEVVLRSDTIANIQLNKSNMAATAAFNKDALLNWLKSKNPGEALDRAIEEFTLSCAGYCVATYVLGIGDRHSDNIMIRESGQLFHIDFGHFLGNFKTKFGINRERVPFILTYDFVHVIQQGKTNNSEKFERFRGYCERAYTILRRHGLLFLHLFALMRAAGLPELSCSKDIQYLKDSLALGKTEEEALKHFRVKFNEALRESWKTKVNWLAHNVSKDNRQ
Method in brief: as §1

[5] = test system: Akt phosphorylated at Ser473 in PC-3 cells; test: Cellular assay: phosphorylation of Akt at Ser473 in PC-3 cells (MSD ELISA); assay type: cell-based; details: PC-3 cells, 60 min compound incubation, MSD ELISA, read-out: IC50 pAkt_S473
Method in brief: as §2

T3 sequence (P42336 whole entry): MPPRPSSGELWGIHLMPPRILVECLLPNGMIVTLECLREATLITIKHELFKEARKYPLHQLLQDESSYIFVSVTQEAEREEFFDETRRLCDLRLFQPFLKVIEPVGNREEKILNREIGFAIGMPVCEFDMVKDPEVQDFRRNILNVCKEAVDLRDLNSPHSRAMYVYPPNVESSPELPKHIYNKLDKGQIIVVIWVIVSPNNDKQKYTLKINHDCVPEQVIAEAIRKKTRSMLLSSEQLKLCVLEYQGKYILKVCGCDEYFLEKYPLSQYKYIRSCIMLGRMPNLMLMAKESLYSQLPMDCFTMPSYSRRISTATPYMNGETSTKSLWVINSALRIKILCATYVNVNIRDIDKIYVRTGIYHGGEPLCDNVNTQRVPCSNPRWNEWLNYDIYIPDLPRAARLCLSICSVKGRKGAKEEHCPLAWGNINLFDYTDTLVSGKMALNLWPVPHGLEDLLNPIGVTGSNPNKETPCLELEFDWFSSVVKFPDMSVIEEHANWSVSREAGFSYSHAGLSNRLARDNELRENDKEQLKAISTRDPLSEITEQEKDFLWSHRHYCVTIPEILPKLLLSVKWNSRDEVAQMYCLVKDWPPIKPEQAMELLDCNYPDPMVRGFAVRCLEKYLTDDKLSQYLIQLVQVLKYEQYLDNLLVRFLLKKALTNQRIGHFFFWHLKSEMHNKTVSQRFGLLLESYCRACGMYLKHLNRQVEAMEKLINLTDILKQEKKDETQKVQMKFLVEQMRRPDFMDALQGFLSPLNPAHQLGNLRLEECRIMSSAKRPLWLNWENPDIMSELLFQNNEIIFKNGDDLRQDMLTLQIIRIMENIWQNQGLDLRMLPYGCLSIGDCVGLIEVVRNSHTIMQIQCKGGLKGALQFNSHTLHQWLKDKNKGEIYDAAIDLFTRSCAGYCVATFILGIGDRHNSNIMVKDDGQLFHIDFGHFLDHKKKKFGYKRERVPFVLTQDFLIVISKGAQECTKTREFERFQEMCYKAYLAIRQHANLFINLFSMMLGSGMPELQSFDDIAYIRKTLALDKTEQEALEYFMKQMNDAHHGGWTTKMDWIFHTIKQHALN
T4 sequence (P42338 whole entry): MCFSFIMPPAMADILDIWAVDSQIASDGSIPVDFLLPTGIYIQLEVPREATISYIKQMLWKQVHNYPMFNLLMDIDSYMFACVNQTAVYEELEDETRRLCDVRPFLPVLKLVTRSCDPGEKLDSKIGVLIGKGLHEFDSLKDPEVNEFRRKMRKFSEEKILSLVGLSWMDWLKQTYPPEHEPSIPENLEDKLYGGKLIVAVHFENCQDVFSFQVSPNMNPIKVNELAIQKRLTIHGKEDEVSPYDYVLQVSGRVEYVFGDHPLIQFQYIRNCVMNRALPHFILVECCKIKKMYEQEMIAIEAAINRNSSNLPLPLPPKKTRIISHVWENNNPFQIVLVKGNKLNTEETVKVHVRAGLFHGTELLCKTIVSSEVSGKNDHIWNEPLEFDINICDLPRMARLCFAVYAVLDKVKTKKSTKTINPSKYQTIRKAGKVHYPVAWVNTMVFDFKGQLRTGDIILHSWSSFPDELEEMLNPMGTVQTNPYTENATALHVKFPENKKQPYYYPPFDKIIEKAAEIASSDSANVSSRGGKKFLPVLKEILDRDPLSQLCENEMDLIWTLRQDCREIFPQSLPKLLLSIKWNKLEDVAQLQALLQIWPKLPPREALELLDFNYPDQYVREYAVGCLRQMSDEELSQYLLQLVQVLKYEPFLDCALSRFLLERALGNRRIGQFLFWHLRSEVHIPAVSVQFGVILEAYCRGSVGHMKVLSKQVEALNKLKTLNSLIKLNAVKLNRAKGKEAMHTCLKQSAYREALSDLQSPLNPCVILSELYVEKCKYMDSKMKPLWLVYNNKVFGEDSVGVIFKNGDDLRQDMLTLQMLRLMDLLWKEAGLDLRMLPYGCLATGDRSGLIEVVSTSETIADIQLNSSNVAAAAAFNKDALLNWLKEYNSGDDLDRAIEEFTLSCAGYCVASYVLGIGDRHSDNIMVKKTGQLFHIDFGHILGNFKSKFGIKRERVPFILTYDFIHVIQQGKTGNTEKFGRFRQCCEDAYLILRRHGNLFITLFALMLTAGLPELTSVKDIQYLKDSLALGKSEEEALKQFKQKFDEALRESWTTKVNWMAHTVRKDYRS
T1 sequence (P48736 whole entry): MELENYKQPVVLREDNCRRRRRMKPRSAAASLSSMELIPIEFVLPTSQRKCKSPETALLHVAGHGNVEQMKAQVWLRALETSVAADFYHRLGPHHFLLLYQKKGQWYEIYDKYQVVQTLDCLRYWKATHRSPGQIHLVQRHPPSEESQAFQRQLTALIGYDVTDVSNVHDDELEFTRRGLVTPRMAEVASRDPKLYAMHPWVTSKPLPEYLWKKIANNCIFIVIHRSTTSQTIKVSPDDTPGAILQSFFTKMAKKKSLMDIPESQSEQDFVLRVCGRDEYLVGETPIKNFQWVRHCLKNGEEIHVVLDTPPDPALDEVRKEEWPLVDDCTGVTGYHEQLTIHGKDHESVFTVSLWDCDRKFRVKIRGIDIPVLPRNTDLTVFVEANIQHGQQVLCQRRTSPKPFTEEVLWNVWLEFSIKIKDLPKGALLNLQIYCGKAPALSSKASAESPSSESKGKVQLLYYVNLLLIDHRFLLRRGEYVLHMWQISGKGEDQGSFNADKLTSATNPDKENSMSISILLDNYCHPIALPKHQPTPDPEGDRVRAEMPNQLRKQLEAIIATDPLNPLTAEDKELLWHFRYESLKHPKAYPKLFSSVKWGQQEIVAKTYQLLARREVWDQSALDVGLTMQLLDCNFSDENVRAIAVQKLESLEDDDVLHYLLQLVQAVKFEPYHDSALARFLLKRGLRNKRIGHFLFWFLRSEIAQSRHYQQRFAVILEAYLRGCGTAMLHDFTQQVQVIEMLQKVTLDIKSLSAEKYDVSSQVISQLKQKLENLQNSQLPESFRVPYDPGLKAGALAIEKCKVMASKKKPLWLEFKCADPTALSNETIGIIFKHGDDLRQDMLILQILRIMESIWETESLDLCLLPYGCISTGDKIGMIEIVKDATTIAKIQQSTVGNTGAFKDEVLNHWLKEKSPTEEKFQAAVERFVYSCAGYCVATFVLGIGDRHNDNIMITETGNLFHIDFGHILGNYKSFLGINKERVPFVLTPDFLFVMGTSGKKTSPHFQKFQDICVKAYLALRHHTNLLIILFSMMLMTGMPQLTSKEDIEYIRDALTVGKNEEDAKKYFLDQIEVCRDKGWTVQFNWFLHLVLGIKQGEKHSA

Compound | Kd (kinase enzymes [1]) [µM] | Kd (kinase enzymes [2]) [µM] | Kd (kinase enzymes [3]) [nM] | Kd (PI3Kβ) [nM] | melting point [°C] | IC50 ([4]; Homo sapiens, PC-3, 1 h) [nM] | Kd (PI3Kδ) [nM] | IC50 ([5]; Homo sapiens, PC-3, 1 h) [nM] | IC50 [4] [nM] | IC50 [5] [nM]
CN(C)C(=O)c1cc(NCc2cc(F)cc(F)c2)c2nc(N3CCOCC3)cnc2c1 [Compound 278] | 15.8 | 19.5 | 2090 | 8 | 158 | 178 | 1740 | 295 |  | 
CC(Oc1cc(F)cc(F)c1)c1cc(-c2cnc[nH]2)cc2ncc(N3CCOCC3)nc12 (single isomer, unassigned) [Compound 21] | 15.8 | 20 | 4790 | 63 | 184 | ~501 | 2240 | 513 |  | 
CC(Nc1ccc(F)c(F)c1)c1cc(C(=O)N2CC[C@@H](O)C2)cc2ncc(N3CCOCC3)nc12 (single isomer, unassigned) [Compound 300a] | 5.49 | > 30.2 | 1480 | 2 | 140 | 19 | 191 | 29 |  | 
CC(Nc1cc(F)cc(F)c1)c1cc(C(=O)N(C)C)cc2ncc(N3CCOCC3)nc12 (stereo not shown) [Compound 11] | 2.51 | > 30.2 | 631 | 1 | 228 | 42 | 275 | 81 |  | 
CN(C)C(=O)c1cc(N2CCCC2c2cc(F)cc(F)c2)c2nc(N3CCOCC3)cnc2c1 (single isomer, unassigned) [Compound 395a] | 17.8 | > 30.2 | 3470 | 33 | 90 | > 513 | 1260 | > 513 |  | 
CC(C)NCc1cc(F)cc(N2CCCC2c2cc(C(=O)N(C)C)cc3ncc(N4CCOCC4)nc23)c1 (stereo not shown) [Compound 49] | 7.59 | > 30.2 | 2190 | 16 | 80 | 468 | 933 | > 513 |  | 
COCCNCc1cc(C2CCCN2c2cc(F)cc(F)c2)c2nc(N3CCOCC3)cnc2c1 (stereo not shown) [Compound 103] | 3 | 24.5 | 1130 | 3 | 80 | 28 | 1000 | 65 |  | 
CC(Nc1ccc(F)c(F)c1)c1cc(C(=O)N(C)C2CCNC2)cc2ncc(N3CCOCC3)nc12 (stereo not shown) [Compound 322b] | 6.17 | > 30.2 | 2190 | 0.3 | 80 |  | 68 |  | 26 | 42
CC(Oc1cc(F)cc(F)c1)c1cc(C(=O)NCCO)cc2ncc(N3CCOCC3)nc12 (stereo not shown) [Compound 198] | 15.5 | > 30.2 | 11200 | 22 | 171 | 200 | 3160 | > 513 |  | 
CN(C)C(=O)c1cc(C2CCCN2c2ccc(F)cc2)c2nc(N3CCOCC3)cnc2c1 (stereo not shown) [Compound 42] | 1.48 | > 30.2 | 331 | 1 | 80 | 11 | 56 | 16 |  | 
CC(Nc1ccc(F)c(F)c1)c1cc(C(=O)N2CCN3CCC[C@H]3C2)cc2ncc(N3CCOCC3)nc12 (stereo partly shown) [Compound 287] | 26.3 | > 30.2 | 2690 | 13 | 80 | 48 | 977 | 151 |  | 
OC(CN1CCC1)c1cc(C2CCCN2c2cc(F)cc(F)c2)c2nc(N3CCOCC3)cnc2c1 (single isomer, unassigned) [Compound 94] | 0.178 | 21.4 | 79 | 0.1 | 80 | 12 | 29 |  |  | 8
O=C(NCCO)c1cc(CNc2cc(F)cc(F)c2)c2nc(N3CCOCC3)cnc2c1 [Compound 333] | 17.4 | > 30.2 | 5250 | 37 | 265 | 148 | 7410 | > 513 |  | 
CC(Nc1cc(F)cc(F)c1)c1cc(C(=O)N(C)CCN(C)C)cc2ncc(N3CCOCC3)nc12 (stereo not shown) [Compound 180] | 2.19 | > 30.2 | 891 | 0.1 | 148 | 1 | 49 | 3 |  | 
CC(Nc1ccc(F)c(F)c1)c1cc(C(=O)NCCCO)cc2ncc(N3CCOCC3)nc12 (single isomer, unassigned) [Compound 280a] | 12 | 20.9 | 1700 | 12 | 80 |  | 562 |  | 45 | 87
CNCCN(C)C(=O)c1cc(C(C)Nc2cc(F)cc(F)c2)c2nc(N3CCOCC3)cnc2c1 (single isomer, unassigned) [Compound 137] | 0.501 | > 30.2 | 138 | 0.1 | 80 |  | 9 |  | 1 | 1
CCN1CCN(C(=O)c2cc(C(C)Nc3cc(F)cc(F)c3)c3nc(N4CCOCC4)cnc3c2)CC1 (stereo not shown) [Compound 143] | 9.55 | > 30.2 | 2820 | 2 | 80 | 30 | 389 | 102 |  | 
